Data taken from PMC4951600 (Iranian Journal of Basic Medical Sciences, 2016).

Molecular target: mitochondrial ATP synthase (DNP-stimulated Mg2+-ATPase), rat heart mitochondria (Rattus norvegicus, UniProt P10719+P15999)
Experiment: phosphate release from ATP
Format: biochemical

mitochondrial ATP synthase (DNP-stimulated Mg2+-ATPase), rat heart mitochondria, sequence (P10719 47-529): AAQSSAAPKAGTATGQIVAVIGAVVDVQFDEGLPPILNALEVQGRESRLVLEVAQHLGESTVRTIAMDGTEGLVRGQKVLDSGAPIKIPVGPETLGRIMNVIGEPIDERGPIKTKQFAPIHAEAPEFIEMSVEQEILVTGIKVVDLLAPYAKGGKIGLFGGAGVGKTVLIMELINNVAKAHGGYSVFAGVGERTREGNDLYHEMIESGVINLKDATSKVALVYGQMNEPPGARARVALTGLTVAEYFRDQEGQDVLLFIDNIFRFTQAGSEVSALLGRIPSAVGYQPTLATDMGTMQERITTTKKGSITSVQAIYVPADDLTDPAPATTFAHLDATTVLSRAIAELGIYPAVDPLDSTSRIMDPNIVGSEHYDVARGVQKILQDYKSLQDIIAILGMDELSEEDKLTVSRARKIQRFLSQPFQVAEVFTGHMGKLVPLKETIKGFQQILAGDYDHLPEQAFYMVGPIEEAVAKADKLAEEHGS
mitochondrial ATP synthase (DNP-stimulated Mg2+-ATPase), rat heart mitochondria, sequence (P15999 44-553): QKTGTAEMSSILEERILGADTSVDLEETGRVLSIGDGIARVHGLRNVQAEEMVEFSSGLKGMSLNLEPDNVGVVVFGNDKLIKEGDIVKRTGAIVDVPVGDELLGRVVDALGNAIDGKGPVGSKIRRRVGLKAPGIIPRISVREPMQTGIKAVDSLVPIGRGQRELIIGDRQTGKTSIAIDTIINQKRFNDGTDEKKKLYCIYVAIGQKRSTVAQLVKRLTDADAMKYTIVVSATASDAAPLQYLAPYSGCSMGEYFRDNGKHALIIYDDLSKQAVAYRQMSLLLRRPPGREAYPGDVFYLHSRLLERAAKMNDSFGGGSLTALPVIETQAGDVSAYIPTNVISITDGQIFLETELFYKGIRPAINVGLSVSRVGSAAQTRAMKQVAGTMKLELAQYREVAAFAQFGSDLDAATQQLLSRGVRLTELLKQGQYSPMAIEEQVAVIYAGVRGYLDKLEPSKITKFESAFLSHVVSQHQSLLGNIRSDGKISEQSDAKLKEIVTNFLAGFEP
mitochondrial ATP synthase (DNP-stimulated Mg2+-ATPase), rat heart mitochondria, sequence (P35435 whole entry partner): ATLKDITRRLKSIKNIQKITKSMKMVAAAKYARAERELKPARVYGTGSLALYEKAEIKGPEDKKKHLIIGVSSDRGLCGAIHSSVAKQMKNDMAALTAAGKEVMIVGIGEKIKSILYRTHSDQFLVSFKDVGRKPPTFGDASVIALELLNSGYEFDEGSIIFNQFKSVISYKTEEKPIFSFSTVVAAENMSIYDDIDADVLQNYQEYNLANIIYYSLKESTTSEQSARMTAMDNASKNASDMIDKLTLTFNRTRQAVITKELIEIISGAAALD
mitochondrial ATP synthase (DNP-stimulated Mg2+-ATPase), rat heart mitochondria, sequence (P35434 23-168 partner): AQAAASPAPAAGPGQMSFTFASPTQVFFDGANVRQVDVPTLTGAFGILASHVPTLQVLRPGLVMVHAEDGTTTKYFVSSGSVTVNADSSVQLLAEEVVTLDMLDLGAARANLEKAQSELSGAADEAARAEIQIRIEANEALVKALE
mitochondrial ATP synthase (DNP-stimulated Mg2+-ATPase), rat heart mitochondria, sequence (P29418 2-51 partner): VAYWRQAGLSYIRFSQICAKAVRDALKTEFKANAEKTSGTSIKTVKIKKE
mitochondrial ATP synthase (DNP-stimulated Mg2+-ATPase), rat heart mitochondria, sequence (Q06647 24-213 partner): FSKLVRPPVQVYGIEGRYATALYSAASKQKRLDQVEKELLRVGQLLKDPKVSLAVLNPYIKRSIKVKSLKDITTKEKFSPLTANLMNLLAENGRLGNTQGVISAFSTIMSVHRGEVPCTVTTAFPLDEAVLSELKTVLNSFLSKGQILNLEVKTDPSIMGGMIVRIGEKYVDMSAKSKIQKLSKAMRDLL

## C[C@H](CS)C(=O)N1CCC[C@H]1C(=O)O [captopril]
read-out: % inhibition at 0.45 mmol/l
  inhibition at 450 µM: 97.4%

## COC(=O)C1=C(C)NC(C)=C(C(=O)OC)C1c1ccccc1[N+](=O)[O-] [nifedipine]
read-out: % inhibition at 0.015 mmol/l
  inhibition at 15 µM: 33%
